Values after ≈ are worked out from the molar mass of the structure shown. Marks after values point to notes of the source that are not given here.
Columns and labels:
[1] = system: lung cancer A549 transplanted mouse model; assay: In vivo tumor growth inhibition, intravenous administration; design: species or system Kunming mice; conditions: 20 mg/kg
Procedure: The lung cancer A549 transplanted mouse model was employed. DDO-6101 and antitumor drug 5-fluorouracil (5-FU) were also tested for comparison.
Kunming mice with body weights of 18–22 g were transplanted with lung cancer A549 cells according to protocols of transplant tumor research, as previously reported. Twenty-four hours after tumor transplantation, animals were weighed and randomly divided into five groups. All test drugs were given […] 24 h after tumor transplantation. The treated groups were intravenously injected or administered per os different doses of test compounds, respectively. The negative control group received 0.9% normal saline. Treatments were conducted at a frequency of one dose per two days for the intravenous group or one dose per day for the per os group for two or one week, respectively. All animals were sacrificed 24 h after the final treatment. All data are presented as mean ± SD and the statistical significance was evaluated by t-test.

[2] = logD by potentiometric titration (Gemini Profiler); type: physicochemical; conditions: measured on Gemini Profiler instrument (pION); for logD: pH 7.4, read-out: Log D 7.4
[3] = system: taxol-resistant A549 cell line (A549/taxol); assay: MTT antiproliferative assay, A549/taxol; type: cell-based; conditions: Homo sapiens, A549/Taxol; MTT, 72 h; read-out: IC50 A549/Taxol
Procedure: (§1) The antiproliferative activity of the ten synthesized caged xanthone derivatives, as well as the lead compound DDO-6101 and GA were assessed with the 3-(4,5-dimethylthiazol-2-yl)-2,5-diphenyltetrazolium bromide (MTT) assay, as previously reported, against six human cancer cell lines, including the human lung carcinoma A549 cell line, taxol-resistant A549 cell line (A549/taxol), cisplatin-resistant A549 cell line (A549/cisplatin), the human hepatocellular carcinoma HepG2 cell line, the human colon carcinoma HCT-116 cell line, and the human glioblastoma U251 cell line. DDO-6101 and GA were used as positive controls for the in vitro assay.
(§2) Cancer cell lines were obtained from Cell Bank of Shanghai, Chinese Academy of Sciences. Cells were cultured in 90% RPMI 1640 medium (GIBCO, Invitrogen Corporation, New York, NY, USA) supplemented with 10% fetal bovine serum (Sijiqing Biotechnology Co., Hangzhou, China), 100 U/mL benzyl penicillin, and 100 μg/mL streptomycin in a humidified environment with 5% CO2 at 37 °C. All the tested compounds were dissolved in DMSO at a concentration of 0.01 mol/L and stored at −4 °C.
(§3) The inhibition of tumour cell growth was measured by a modified tetrazolium (MTT) salt assay. Cells were cultured in a 96-well plate and treated with culture medium alone or different concentrations of the compounds. The cells were incubated for 72 h, and then the MTT assay reagent was added. After a 4 h incubation, the formazan product was quantitated at 570 nm. The IC50 values (the concentrations that gave rise to 50% inhibition of cell viability) were calculated using GraphPad Prism 6 using a variable slope (four parameters).

U2OS cells = assay: MTT antiproliferative assay, U2OS; type: cell-based; conditions: Homo sapiens, 72 h
[4] = Parallel artificial membrane permeability assay (PAMPA)
Source text: (§4) In parallel with the in vitro antitumor activity testing, the physicochemical properties of the target caged xanthone derivatives were theoretically predicted and experimentally determined in an effort to identify potential druglike compounds prior to the time-consuming and costly development and optimization of derivatives that may ultimately fail in efficacy experiments in vivo. The partition coefficient (logD) was experimentally determined on a Gemini Profiler instrument (pION, Inc., Woburn, MA, USA) by a potentiometric titration method. The polar surface area (PSA), as well as intestinal absorption level, were theoretically predicted by Accelrys Discovery Studio 4.0 (BIOVIA, San Diego, CA, USA) using the ADMET protocol. […] The permeability coefficient (Pe) was determined using a standard parallel artificial membrane permeability assay (PAMPA) on a PAMPA Explorer instrument (pION).
A HPLC system with an ultraviolet (UV) detector was used to detect the solubility of the compounds. The optimal wavelength was 290 nm. Ethanol/water (85:15) was an efficient eluent at a flow rate of 0.5 mL/min. The compounds were stirred in deionized water overnight to maximize the retention of the compounds in solution. Then, the solutions were filtered and the supernatant was used as a fluid sample for HPLC detection. The permeability (Pe) of the compounds was tested with the help of a standard PAMPA (pION). PAMPA was performed on a PAMPA Explorer instrument (pION) with the PAMPA Explorer command software (Version 3.7.4.1). The compounds were diluted to 10 mM with the system solution buffer (pH 7.4). Then, 150 μL of the diluted compound solution was transferred to a UV plate, and the UV spectrum was collected and used as a reference. Then, paint the membrane with 5 μL of gastrointestinal tract (GIT) lipid. The acceptor chamber was filled with 200 μL of acceptor solution buffer, and the donor chamber was filled with 200 μL of diluted compound solution. […] The UV spectra (240–500 nm) from the donor and the acceptor were collected. The permeability coefficient was calculated with the PAMPA Explorer Command software (Version 3.7.4.1) based on the area under the curve (AUC) of the reference plate, the donor plate, and the acceptor plate. The permeability coefficient of the compound was tested for four times, and the data are shown as the average values.

[5] = Aqueous solubility by HPLC; conditions: thermodynamic from solid
Source text: as §4
A HPLC system with an ultraviolet (UV) detector was used to detect the solubility of the compounds. The optimal wavelength was 290 nm. Ethanol/water (85:15) was an efficient eluent at a flow rate of 0.5 mL/min. The compounds were stirred in deionized water overnight to maximize the retention of the compounds in solution. Then, the solutions were filtered and the supernatant was used as a fluid sample for HPLC detection. The permeability (Pe) of the compounds was tested with the help of a standard PAMPA (pION). PAMPA was performed on a PAMPA Explorer instrument (pION) with the PAMPA Explorer command software (Version 3.7.4.1). The compounds were diluted to 10 mM with the system solution buffer (pH 7.4). Then, 150 μL of the diluted compound solution was transferred to a UV plate, and the UV spectrum was collected and used as a reference. Then, paint the membrane with 5 μL of gastrointestinal tract (GIT) lipid. The acceptor chamber was filled with 200 μL of acceptor solution buffer, and the donor chamber was filled with 200 μL of diluted compound solution. The PAMPA sandwich was assembled and left at 25 °C for 4 h. The UV spectra (240–500 nm) from the donor and the acceptor were collected. The permeability coefficient was calculated with the PAMPA Explorer Command software (Version 3.7.4.1) based on the area under the curve (AUC) of the reference plate, the donor plate, and the acceptor plate. The permeability coefficient of the compound was tested for four times, and the data are shown as the average values.

[6] = system: human hepatocellular carcinoma HepG2 cell line; assay: MTT antiproliferative assay, HepG2; type: cell-based; conditions: 72 h
Procedure: as §1, §2, §3

[7] = system: cisplatin-resistant A549 cell line (A549/cisplatin); assay: MTT antiproliferative assay, A549/cisplatin; type: cell-based; conditions: Homo sapiens, 72 h
Procedure: as §1, §2, §3

[8] = system: human lung carcinoma A549 cell line; assay: MTT antiproliferative assay, A549; type: cell-based; conditions: Homo sapiens, A549; MTT, 72 h
Procedure: as §1, §2, §3

[9] = system: human colon carcinoma HCT-116 cell line; assay: MTT antiproliferative assay, HCT116; type: cell-based; conditions: 72 h
Procedure: as §1, §2, §3

Row | SMILES | logD [2] | IC50 [3] [µM] | IC50 (U2OS cells) [µM] | Papp at 4 h, 10 mM ([4]; pH 5) [×10⁻⁶ cm/s] | Papp at 4 h, 10 mM ([4]; pH 6.2) [×10⁻⁶ cm/s] | Papp at 4 h, 10 mM ([4]; pH 7.4) [×10⁻⁶ cm/s] | solubility ([5]; deionized water) [µM] | IC50 [6] [µM] | IC50 [7] [µM] | IC50 [8] [µM] | melting point [°C] | IC50 [9] [µM] | other results
1 | O=c1[nH]cc(F)c(=O)[nH]1 [Compound 5-FU, 5-fluorouracil, reference compound] |  |  |  |  |  |  |  |  |  |  |  |  | Body Weight Pre-Dose ([1]; pre-dose): 20.25 ± 1.27 g; Body Weight After-Dose ([1]; two weeks): 24.43 ± 2.62 g; Inhibitory Rate ([1]; two weeks): 64.71%; Weight of Tumor ([1]; two weeks): 0.48 ± 0.17 ^b g
2 | CC(C)=CCC12OC(C)(C)C3CC(C=C4C(=O)c5c(OCc6cn(CCN(C)C)nn6)cccc5OC431)C2=O (centres unmarked) [Compound 8a] | 2.1 | 1.22 ± 0.21 | 2.22 ± 0.09 | 27.9 ± 3.3 | 58.8 ± 2.1 | 91.4 ± 9.8 | 1120 (≈ 597 µg/mL) | 2.12 ± 0.41 | 1.48 ± 0.1 | 1.95 ± 0.4 | 156 to 158 | 1.64 ± 0.26 | 
3 | CC(C)=CCC12OC(C)(C)C3CC(C=C4C(=O)c5c(OCc6cn(CCCN(C)C)nn6)cccc5OC431)C2=O (centres unmarked) [Compound 8b] | 1.8 | 1.3 ± 0.08 | 2.73 ± 0.05 | 16.3 ± 1.2 | 41.7 ± 3.2 | 76.1 ± 6.4 | 1540 (≈ 842 µg/mL) | 1.36 ± 0.16 | 1.66 ± 0.11 | 2.62 ± 0.2 | 133 to 136 | 2.27 ± 0.05 | 
4 | CC(C)=CCC12OC(C)(C)C3CC(C=C4C(=O)c5c(OCc6cn(CCN7CCCC7)nn6)cccc5OC431)C2=O (centres unmarked) [Compound 8c] | 2.2 | 1.29 ± 0.07 | 2.01 ± 0.2 | 42.3 ± 1.5 | 75.4 ± 6.9 | 91.9 ± 6 | 1400 (≈ 782 µg/mL) | 1.19 ± 0.31 | 1.34 ± 0.09 | 2.58 ± 0.39 | 168 to 170 | 0.98 ± 0.31 | 
5 | CC(C)=CCC12OC(C)(C)C3CC(C=C4C(=O)c5c(OCc6cn(CCCN7CCCC7)nn6)cccc5OC431)C2=O (centres unmarked) [Compound 8d] | 1.6 | 1.7 ± 0.12 | 3.05 ± 0.07 | 15.4 ± 2.1 | 52.8 ± 1.6 | 66.4 ± 8.4 | 1920 (≈ 1100 µg/mL) | 4.48 ± 0.29 | 0.89 ± 0.24 | 2.62 ± 0.04 | 144 to 146 | 1.02 ± 0.03 | 
6 | CC(C)=CCC12OC(C)(C)C3CC(C=C4C(=O)c5c(OCc6cn(CCN7CCCCC7)nn6)cccc5OC431)C2=O (centres unmarked) [Compound 8e] | 2.9 | 2.03 ± 0.11 | 4.66 ± 0.03 | 47.8 ± 4.7 | 57.2 ± 1.4 | 78.2 ± 8.8 | 560 (≈ 321 µg/mL) | 4.85 ± 0.39 | 1.29 ± 0.48 | 2.17 ± 0.12 | 173 to 176 | 2.14 ± 0.18 | Pe range ([4]; range under different pH from 5.0 to 7.4): 47.0–78.2 × 10^–6 cm/s
7 | CC(C)=CCC12OC(C)(C)C3CC(C=C4C(=O)c5c(OCc6cn(CCCN7CCCCC7)nn6)cccc5OC431)C2=O (centres unmarked) [Compound 8f] | 2.7 | 1.29 ± 0.08 | 2.07 ± 0.11 | 34.9 ± 3.6 | 55.1 ± 0.8 | 68.7 ± 5.3 | 880 (≈ 516 µg/mL) | 6.3 ± 0.48 | 1.32 ± 0.12 | 1.07 ± 0.28 | 125 to 128 | 1.39 ± 0.04 | 
8 | CC(C)=CCC[C@]1(C)C=Cc2c(O)c3c(c(CC=C(C)C)c2O1)O[C@]12C(=C[C@@H]4C[C@H]1C(C)(C)O[C@@]2(C/C=C(/C)C(=O)O)C4=O)C3=O [GA, Gambogic acid, reference compound] |  | 0.29 ± 0.04 | 4.67 ± 0.11 |  |  |  |  |  | 2.5 ± 0.06 |  |  | 0.34 ± 0.08 | Log D 7.4 [2]: 3.6; Pe range ([4]; PAMPA, 4 h, 10 mM): 0.9–2.3 × 10^–6 cm/s; Papp at 4 h, 10 mM ([4]; PAMPA, pH 5): 0.9 ± 0.5 ×10⁻⁶ cm/s; Pe pH=6.2 ([4]; pH 6.2): 1.8±0.2 10-6 cm/s; Pe pH=7.4 ([4]; pH 7.4): 2.3±0.3 10-6 cm/s; solubility ([5]; water): < 5 µM
9 | CC(C)NCC(O)COc1cccc2ccccc12 (centres unmarked) [Propranolol, reference compound] |  |  |  |  |  |  |  |  |  |  |  |  | Pe pH=7.4 ([4]; pH 7.4): 127.5±15.8 10-6 cm/s; Pe pH=7.4 ([4]; pH 7.4, listed as propranolol): 127.5 10-6 cm/s

Source: PMC6150271, “‘Click Chemistry’ Synthesis of Novel Natural Product-Like Caged Xanthones Bearing a 1,2,3-Triazole Moiety with Improved Druglike Properties as Orally Active Antitumor Agents” (Molecules : A Journal of Synthetic Chemistry and Natural …, 2017)
